Data published in patent US6737383B1, “Herbicidal oxadiazolidines” (priority 1999, dated 2004).

Key:
corn = assay: Test B pre/postemergence corn; assay type: in vivo, Zea mays
Outline: (§1)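 Test chemicals in a non-phytotoxic solvent mixture with surfactant were sprayed preemergence onto planted seeds and postemergence onto plants 2 to 18 cm tall (1- to 4-leaf stage). After twelve to sixteen days in a greenhouse, injury was visually rated against untreated controls from 0 (no effect) to 10 (complete control).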

pigweed = assay: Test B pre/postemergence pigweed; assay type: in vivo, Amaranthus retroflexus
Outline: as §1

crabgrass = assay: Test B pre/postemergence crabgrass; assay type: in vivo, Digitaria sanguinalis
Outline: as §1

sugar beet = assay: Test B pre/postemergence sugar beet; assay type: in vivo, Beta vulgaris
Outline: as §1

blackgrass = assay: Test B pre/postemergence blackgrass; assay type: in vivo, Alopecurus myosuroides
Outline: as §1

velvetleaf = assay: Test B pre/postemergence velvetleaf; assay type: in vivo, Abutilon theophrasti
Outline: as §1

bedstraw = assay: Test B pre/postemergence bedstraw; assay type: in vivo, Galium aparine
Outline: as §1

bamyardgrass = assay: Test B flood test barnyardgrass; assay type: in vivo, Echinochloa crus-galli
Outline: (§2)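 Each value is a visual injury score relative to controls, with 10 meaning complete control and 0 no effect. Evaluation took place twelve to sixteen days after the 2-leaf-stage plants were treated and kept in the greenhouse.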

purple nutsedge = assay: Test B pre/postemergence purple nutsedge; assay type: in vivo, Cyperus rotundus
Outline: as §1

surinam grass = assay: Test B pre/postemergence surinam grass; assay type: in vivo, Brachiaria decumbens
Outline: as §1

wild oat = assay: Test B pre/postemergence wild oat; assay type: in vivo, Avena fatua
Outline: as §1

rape = assay: Test B pre/postemergence rape; assay type: in vivo, Brassica napus
Outline: as §1

wheat = assay: Test B pre/postemergence wheat; assay type: in vivo, Triticum aestivum
Outline: as §1

soybean = assay: Test B pre/postemergence soybean; assay type: in vivo, Glycine max
Outline: as §1

cocklebur = assay: Test B pre/postemergence cocklebur; assay type: in vivo, Xanthium strumarium
Outline: as §1

smallflower flatsedge = assay: Test B flood test smallflower flatsedge; assay type: in vivo, Cyperus difformis
Outline: as §2

[1] = Postemergence, Rate 62 g/ha, scale 0 to 10, 0 is no effect, 10 is complete control
[2] = Postemergence, Rate 250 g/ha, scale 0 to 10, 0 no effect, 10 complete control
[3] = Preemergence, Rate 62 g/ha, scale 0 to 10, 0 is no effect, 10 is complete control
[4] = Preemergence, Rate 125 g/ha, scale 0 to 10 (0 no effect, 10 complete control)
[5] = Preemergence, Rate 250 g/ha, scale of 0 to 10 where 0 is no effect and 10 is complete control
[6] = Preemergence, Rate 500 g/ha, scale 0 (no effect) to 10 (complete control)
[7] = Rate 125 g/ha, Postemergence, scale 0 to 10, 0 no effect, 10 complete control
[8] = Rate 500 g/ha, Postemergence, 0 to 10 scale (0 no effect, 10 complete control)
[9] = Rate 125 g/ha, Postemergence section (flood test species), scale 0 to 10, 0 no effect, 10 complete control
[10] = Rate 250 g/ha, headed Pre-emergence (flood test species), scale 0 to 10 (0 no effect, 10 complete control)
[11] = Rate 500 g/ha, headed Pre-emergence (flood test species), scale 0 to 10 (0 no effect, 10 complete control)
[12] = flood test, listed under Postemergence, Rate 250 g/ha, scale 0 to 10, 0 no effect, 10 complete control

Cc1cccc(C)c1-n1c(=O)on(C(=O)N(c2ccccc2)C(C)C)c1=O [Compound 46]
Corn plant response rating (corn; [1]): 0
Corn plant response rating (corn; [2]): 0
Plant response rating, Corn (corn; [3]): 0
Plant response rating, Corn (corn; [4]): 0
Plant response rating, Corn (corn; [5]): 0
Corn plant response rating (corn; [6]): 0
Corn plant response rating (corn; [7]): 0
Corn plant response rating (corn; [8]): 0
Redroot pigweed plant response rating (pigweed; [1]): 0
Redroot pigweed plant response rating (pigweed; [2]): 0
Plant response rating, Redroot pigweed (pigweed; [3]): 0
Plant response rating, Redroot pigweed (pigweed; [4]): 0
Plant response rating, Redroot pigweed (pigweed; [5]): 6
Redroot pigweed plant response rating (pigweed; [6]): 9
Redroot pigweed plant response rating (pigweed; [7]): 0
Redroot pigweed plant response rating (pigweed; [8]): 0
Crabgrass plant response rating (crabgrass; [1]): 0
Crabgrass plant response rating (crabgrass; [2]): 3
Plant response rating, Crabgrass (crabgrass; [3]): 1
Plant response rating, Crabgrass (crabgrass; [4]): 4
Plant response rating, Crabgrass (crabgrass; [5]): 10
Crabgrass plant response rating (crabgrass; [6]): 10
Crabgrass plant response rating (crabgrass; [7]): 0
Crabgrass plant response rating (crabgrass; [8]): 3
Sugarbeets plant response rating (sugar beet; [1]): 0
Sugarbeets plant response rating (sugar beet; [2]): 0
Plant response rating, Sugarbeets (sugar beet; [3]): 0
Plant response rating, Sugarbeets (sugar beet; [4]): 3
Plant response rating, Sugarbeets (sugar beet; [5]): 3
Sugarbeets plant response rating (sugar beet; [6]): 6
Sugarbeets plant response rating (sugar beet; [7]): 0
Blackgrass plant response rating (blackgrass; [1]): 0
Blackgrass plant response rating (blackgrass; [2]): 6
Plant response rating, Blackgrass (blackgrass; [3]): 0
Plant response rating, Blackgrass (blackgrass; [4]): 0
Plant response rating, Blackgrass (blackgrass; [5]): 2
Blackgrass plant response rating (blackgrass; [6]): 7
Blackgrass plant response rating (blackgrass; [7]): 0
Blackgrass plant response rating (blackgrass; [8]): 6
Velvetleaf plant response rating (velvetleaf; [1]): 0
Velvetleaf plant response rating (velvetleaf; [2]): 0
Plant response rating, Velvetleaf (velvetleaf; [3]): 0
Plant response rating, Velvetleaf (velvetleaf; [4]): 0
Plant response rating, Velvetleaf (velvetleaf; [5]): 0
Velvetleaf plant response rating (velvetleaf; [6]): 2
Velvetleaf plant response rating (velvetleaf; [7]): 0
Bedstraw plant response rating (bedstraw; [1]): 0
Plant response rating, Bedstraw (bedstraw; [3]): 0
Plant response rating, Bedstraw (bedstraw; [4]): 0
Plant response rating, Bedstraw (bedstraw; [5]): 0
Bedstraw plant response rating (bedstraw; [6]): 0
Bedstraw plant response rating (bedstraw; [7]): 0
Barnyardgrass plant response rating (bamyardgrass; [1]): 0
Barnyardgrass plant response rating (bamyardgrass; [9]): 0
Barnyardgrass plant response rating (bamyardgrass; [10]): 0
Barnyardgrass plant response rating (bamyardgrass; Rate 500 g/ha, Postemergence section of Table B, 0 to 10 scale (0 no effect, 10 complete control)): 0
Plant response rating, Barnyardgrass (bamyardgrass; [11]): 0
Barnyardgrass plant response rating (bamyardgrass; Rate 1000 g/ha, Pre-emergence (as headed), scale 0 to 10): 0
Barnyardgrass plant response rating (bamyardgrass; Rate 2000 g/ha, Pre-emergence (as headed), scale 0 to 10, 0 no effect, 10 complete control): 9
Barnyardgrass plant response rating (bamyardgrass; [12]): 0
Nutsedge plant response rating (purple nutsedge; [1]): 0
Nutsedge plant response rating (purple nutsedge; [2]): 0
Plant response rating, Nutsedge (purple nutsedge; [3]): 0
Plant response rating, Nutsedge (purple nutsedge; [4]): 0
Plant response rating, Nutsedge (purple nutsedge; [5]): 0
Nutsedge plant response rating (purple nutsedge; [6]): 0
Nutsedge plant response rating (purple nutsedge; [7]): 0
Nutsedge plant response rating (purple nutsedge; [8]): 0
B. signalgrass plant response rating (surinam grass; [1]): 0
B. signalgrass plant response rating (surinam grass; [2]): 0
Plant response rating, B. signalgrass (surinam grass; [3]): 0
Plant response rating, B. signalgrass (surinam grass; [4]): 0
Plant response rating, B. signalgrass (surinam grass; [5]): 2
B. signalgrass plant response rating (surinam grass; [6]): 3
B. signalgrass plant response rating (surinam grass; [7]): 0
B. signalgrass plant response rating (surinam grass; [8]): 0
Wild oats plant response rating (wild oat; [1]): 0
Wild oats plant response rating (wild oat; [2]): 0
Plant response rating, Wild oats (wild oat; [4]): 0
Plant response rating, Wild oats (wild oat; [5]): 0
Wild oats plant response rating (wild oat; [6]): 0
Wild oats plant response rating (wild oat; [7]): 0
Rape plant response rating (rape; [1]): 0
Rape plant response rating (rape; [2]): 0
Plant response rating, Rape (rape; [3]): 0
Plant response rating, Rape (rape; [4]): 0
Plant response rating, Rape (rape; [5]): 0
Rape plant response rating (rape; [6]): 0
Rape plant response rating (rape; [7]): 0
Rape plant response rating (rape; [8]): 0
Wheat plant response rating (wheat; [1]): 0
Wheat plant response rating (wheat; [2]): 0
Plant response rating, Wheat (wheat; [3]): 0
Plant response rating, Wheat (wheat; [4]): 0
Plant response rating, Wheat (wheat; [5]): 0
Wheat plant response rating (wheat; [6]): 0
Wheat plant response rating (wheat; [7]): 0
Soybean plant response rating (soybean; [1]): 1
Soybean plant response rating (soybean; [2]): 1
Plant response rating, Soybean (soybean; [3]): 0
Plant response rating, Soybean (soybean; [4]): 0
Plant response rating, Soybean (soybean; [5]): 0
Soybean plant response rating (soybean; [6]): 0
Soybean plant response rating (soybean; [7]): 1
Cocklebur plant response rating (cocklebur; [1]): 0
Cocklebur plant response rating (cocklebur; [2]): 1
Plant response rating, Cocklebur (cocklebur; [3]): 0
Plant response rating, Cocklebur (cocklebur; [4]): 0
Plant response rating, Cocklebur (cocklebur; [5]): 0
Cocklebur plant response rating (cocklebur; [6]): 0
Cocklebur plant response rating (cocklebur; [7]): 1
Cocklebur plant response rating (cocklebur; [8]): 2
S. Flatsedge plant response rating (smallflower flatsedge; [1]): 0
S. Flatsedge plant response rating (smallflower flatsedge; Pre-emergence, Rate 1000 g/ha, scale 0 to 10 (0 no effect, 10 complete control)): 0
S. Flatsedge plant response rating (smallflower flatsedge; [9]): 0
S. Flatsedge plant response rating (smallflower flatsedge; [10]): 0
Plant response rating, S. Flatsedge (smallflower flatsedge; [11]): 0
S. Flatsedge plant response rating (smallflower flatsedge; Rate 2000 g/ha, Pre-emergence (as headed), scale 0 to 10): 8
S. Flatsedge plant response rating (smallflower flatsedge; [12]): 0
